According to patent US8426408B2, “Pyrimidine inhibitors of kinases” (AbbVie Inc., priority 2009, dated 2013):

Assays:
KDR [1] = target: T1, KDR (Homo sapiens, UniProt P35968); assay: KDR HTRF in vitro kinase assay; assay type: biochemical; set-up: purified enzyme (His6-KDR 789-1354, MW 63 kD); His6 (N); conditions: 1 mM ATP; read-out: KDR enzyme inhibition data (Ki)
Procedure, shortened: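 His6-KDR 789-1354 (7 ng/well) with 0.5 μM biotinylated peptide substrate and 1 mM ATP in HEPES pH 7.1, MgCl2/MnCl2, 60 min at room temperature. EDTA-quenched, detected by streptavidin-XL-665 plus Eu-kryptate anti-phosphotyrosine HTRF after 3 h; IC50 from 620/665 nm ratio.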
Target sequence in this assay (P35968 789-1354): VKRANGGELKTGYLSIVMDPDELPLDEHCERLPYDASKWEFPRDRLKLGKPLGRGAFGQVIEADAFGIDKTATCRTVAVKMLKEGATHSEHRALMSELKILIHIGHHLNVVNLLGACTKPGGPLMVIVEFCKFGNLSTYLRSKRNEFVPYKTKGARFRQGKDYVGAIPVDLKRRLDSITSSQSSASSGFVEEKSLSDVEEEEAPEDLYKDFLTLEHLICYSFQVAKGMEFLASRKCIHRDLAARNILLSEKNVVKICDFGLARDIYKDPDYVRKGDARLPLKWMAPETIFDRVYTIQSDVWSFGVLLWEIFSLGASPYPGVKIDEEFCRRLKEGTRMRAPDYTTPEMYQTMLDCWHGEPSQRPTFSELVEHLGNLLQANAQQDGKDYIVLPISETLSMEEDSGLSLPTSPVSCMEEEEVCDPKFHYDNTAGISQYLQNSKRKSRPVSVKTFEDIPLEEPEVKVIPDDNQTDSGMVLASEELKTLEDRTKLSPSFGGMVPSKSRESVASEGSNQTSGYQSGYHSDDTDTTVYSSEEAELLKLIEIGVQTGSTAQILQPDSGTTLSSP

KDR [2] = target: T1, KDR; assay: KDR cellular assay (KDR receptor phosphorylation ELISA); assay type: cell-based; set-up: expressed in transfected cells; host or cells: 3T3 (embryonic mouse) cells; conditions: KDR transfected 3T3 (embryonic mouse) cells, VEGF stimulated; read-out: IC50 inhibition of KDR phosphorylation
Procedure: The ability of compounds to inhibit KDR receptor phosphorylation in cells was measured by ELISA following the protocol outlined below.
KDR transfected 3T3 (embryonic mouse) cells added to 96-well tissue culture plates at 20,000 cells/well.
Plates were covered and placed in a 37° C. humidified incubator with 5% CO2 overnight, to allow cells to adhere.
Coating solution was prepared: 500 l/vial PBS was added to 2 vials of anti-KDR antibody, then 1 ml solubilized anti-KDR antibody into 29.0 ml bicarbonate buffer. Coating solution was added to all wells at 150 µl/well (final amount anti-KDR=1 µg/well) and placed at 4° C. overnight.
Blocking solution (2.1 g dry milk+42 ml PBS=5% milk in PBS) was placed on a stir plate for 30 min.
Assay plates were washed twice with PBST, and 200 µl/well blocking solution was added to all wells. Assay plates were covered with plate sealers and placed in a 37° C. microplate chamber until just before cell lysate transfer.
Compound stocks were thawed or prepared in DMSO as 5 mM stocks.
Dilution medium (DM, 1% DMSO in DMEM) and compounds were diluted by half-log increments for concentration response analysis.
Conditioned media was dumped from the tissue culture plates, and plates were blotted dry.
Standard solution in DM, compound dilutions in DM, or DM (for high control, negative control, and reference wells) were added to the tissue culture plates, 25 µl/well. Each pair of tissue culture plates was prepared with the same compounds, solutions, and layout; and will be combined later; Tissue culture plates were covered and placed in the 37° C. microplate chamber for 20 min.
VEGF solution was prepared: 110 l VEGF stock+10.89 ml DM=100 ng/ml VEGF
VEGF solution or DM (for reference wells) was added to the tissue culture plates, 25 μl/well.
Tissue culture plates were covered and placed in the 37° C. microplate chamber for 10 min.
RIPA buffer was prepared (240 l NaVO3 stock+240 l PIC stock+24 l NaF stock+23.496 ml RIPA base) and added to the tissue culture plates, 50 µl/well.
Tissue culture plates were covered and placed on a Labline plate shaker for 10 min (speed about 5).
Assay plates were washed twice with PBST.
Cell lysates from matching wells of each pair of tissue culture plates were combined to =200 µl/well, and were pipetted up and down to mix. Cell lysates were transferred to the assay plates using the same layouts, 170 µl/well.
Assay plates were covered with plate sealers and placed on a Labline plate shaker for 2 hr (speed about 5).
Assay plates were washed 5 times with PBST.
Biotin antibody solution was prepared (16 l biotin antibody stock+32 ml PBST=2000× dilution) and added to the assay plates, 150 µl/well.
Assay plates were covered with plate sealers and placed on a Labline plate shaker for 90 min
Streptavidin-HRP solution was prepared (16 l streptavidin-HRP stock+32 ml PBST=2000× dilution) and added to the assay plates, 150 µl/well.
Assay plates were covered with plate sealers and placed on a Labline plate shaker for 60 min
Substrate was added to the assay plates, 100 µl/well.
As assay plates developed, the plates were each monitored on a Molecular Devices Spectramax set to 650 nm, until the signal in the high control wells was around 0.6 OD and the signal in the negative control wells was around 0.1-0.15 OD.
Stop solution was added to the assay plates, 100 µl/well.
The plates were read on a Molecular Devices Spectramax set to 450 nm.
Data was calculated by Assay Explorer, using same-plate high control wells as 0% and reference standard wells as 100% inhibition of KDR phosphorylation. IC50 values were calculated by non-linear regression analysis of the concentration response data.
Target sequence in this assay (P35968 20-1356): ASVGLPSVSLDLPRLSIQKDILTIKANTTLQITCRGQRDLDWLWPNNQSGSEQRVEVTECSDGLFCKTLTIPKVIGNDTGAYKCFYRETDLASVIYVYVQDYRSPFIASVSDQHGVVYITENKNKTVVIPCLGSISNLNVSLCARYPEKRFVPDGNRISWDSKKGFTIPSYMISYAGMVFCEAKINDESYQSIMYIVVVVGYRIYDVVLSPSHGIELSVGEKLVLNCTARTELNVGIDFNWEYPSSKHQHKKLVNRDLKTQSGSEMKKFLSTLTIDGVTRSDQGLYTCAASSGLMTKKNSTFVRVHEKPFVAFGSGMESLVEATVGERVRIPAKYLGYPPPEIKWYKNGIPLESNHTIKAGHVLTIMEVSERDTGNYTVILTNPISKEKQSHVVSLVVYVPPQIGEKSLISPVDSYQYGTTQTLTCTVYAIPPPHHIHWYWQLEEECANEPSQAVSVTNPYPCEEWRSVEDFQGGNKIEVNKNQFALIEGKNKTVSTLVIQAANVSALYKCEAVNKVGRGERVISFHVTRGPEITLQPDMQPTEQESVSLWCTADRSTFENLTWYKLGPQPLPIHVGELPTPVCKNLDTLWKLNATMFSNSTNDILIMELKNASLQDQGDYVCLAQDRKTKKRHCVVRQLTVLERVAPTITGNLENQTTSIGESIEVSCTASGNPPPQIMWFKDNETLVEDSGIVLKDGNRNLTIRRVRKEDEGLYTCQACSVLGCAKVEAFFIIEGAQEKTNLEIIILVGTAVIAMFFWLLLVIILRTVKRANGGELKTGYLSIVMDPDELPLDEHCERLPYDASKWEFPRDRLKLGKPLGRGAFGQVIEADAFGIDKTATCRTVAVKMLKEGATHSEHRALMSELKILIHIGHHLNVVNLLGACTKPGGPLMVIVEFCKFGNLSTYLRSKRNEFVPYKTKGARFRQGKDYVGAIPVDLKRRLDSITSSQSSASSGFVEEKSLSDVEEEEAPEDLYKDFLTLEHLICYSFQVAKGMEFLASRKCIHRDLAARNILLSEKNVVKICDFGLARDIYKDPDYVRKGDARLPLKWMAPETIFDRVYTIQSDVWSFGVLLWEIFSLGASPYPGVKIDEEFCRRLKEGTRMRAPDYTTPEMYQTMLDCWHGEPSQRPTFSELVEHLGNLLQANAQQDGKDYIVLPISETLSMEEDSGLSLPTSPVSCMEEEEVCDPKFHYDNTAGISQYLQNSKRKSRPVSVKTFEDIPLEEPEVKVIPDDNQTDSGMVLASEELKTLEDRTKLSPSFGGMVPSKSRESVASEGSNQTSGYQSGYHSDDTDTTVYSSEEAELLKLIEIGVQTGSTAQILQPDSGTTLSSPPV

Aurora A = target: T2, Aurora A (Homo sapiens, UniProt O14965); assay: Aurora A enzyme inhibition (time-resolved fluorescence, STK substrate-2); assay type: biochemical; conditions: 1 mM ATP
T2 sequence (O14965 1-403): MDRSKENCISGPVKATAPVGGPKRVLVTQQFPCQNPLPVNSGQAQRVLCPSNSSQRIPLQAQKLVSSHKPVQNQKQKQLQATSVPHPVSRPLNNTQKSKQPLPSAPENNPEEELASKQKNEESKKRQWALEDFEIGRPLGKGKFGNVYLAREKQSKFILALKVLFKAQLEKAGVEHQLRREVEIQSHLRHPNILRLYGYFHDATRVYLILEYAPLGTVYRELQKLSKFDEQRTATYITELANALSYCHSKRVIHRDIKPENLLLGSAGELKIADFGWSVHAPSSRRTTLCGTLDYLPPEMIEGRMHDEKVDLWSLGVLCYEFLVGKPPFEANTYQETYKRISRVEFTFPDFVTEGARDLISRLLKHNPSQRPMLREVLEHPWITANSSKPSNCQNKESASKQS
Procedure, shortened: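 Active enzyme incubated 1 h with biotinylated STK substrate-2, 1 mM ATP and inhibitor in Hepes pH 7.4 with MgCl2, orthovanadate and Triton X-100. EDTA stop; phosphopeptide detected by Eu-cryptate anti-phospho-STK/SA-XL665 TR-FRET (665/615 nm ratio); IC50 by exponential fit.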

Aurora B = target: T3, Aurora B (Homo sapiens, UniProt Q96GD4); assay: Aurora B enzyme inhibition (time-resolved fluorescence, histone H3 peptide); assay type: biochemical; conditions: 1 mM ATP
T3 construct: Active Aurora B enzyme (recombinant residues 1-344)
T3 sequence (Q96GD4 whole entry, the tested form may be a part): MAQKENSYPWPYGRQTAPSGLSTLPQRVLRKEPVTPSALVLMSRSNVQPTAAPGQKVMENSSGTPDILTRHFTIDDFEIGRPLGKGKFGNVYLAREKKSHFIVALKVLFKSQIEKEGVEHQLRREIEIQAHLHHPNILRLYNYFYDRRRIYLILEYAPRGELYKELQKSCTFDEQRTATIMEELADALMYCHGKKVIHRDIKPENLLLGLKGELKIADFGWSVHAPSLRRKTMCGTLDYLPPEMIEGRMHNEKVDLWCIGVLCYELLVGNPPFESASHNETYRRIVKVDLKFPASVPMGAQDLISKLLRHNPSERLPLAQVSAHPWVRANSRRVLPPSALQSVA
T3 sequence (Q9NQS7 826-918 partner limits assumed): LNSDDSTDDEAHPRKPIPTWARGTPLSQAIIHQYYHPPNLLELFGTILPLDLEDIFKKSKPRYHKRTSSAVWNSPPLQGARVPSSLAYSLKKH
Procedure, shortened: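 Recombinant Aurora B (residues 1-344) with GST-INCENP phosphorylated biotinylated histone H3 (1-21) peptide at 1 mM ATP in HEPES pH 7.4 with MgCl2, orthovanadate and Triton X-100 for 1 h. After EDTA stop, the phosphopeptide was detected by TR-FRET (Eu-cryptate anti-phospho-H3 / SA-APC, 665/615 nm ratio). IC50 from an exponential fit.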

Compound	Ki (KDR [1])	IC50 (KDR [2])	Ki (Aurora A)	Ki (Aurora B)
5-chloro-N^2-(1H-indazol-5-yl)-N^2-{1-[(3R)-pyrrolidin-3-yl]-1H-pyrazol-4-yl}pyrimidine-2,4-diamine [Example 181]	< 100 nM	100 to 1000 nM	< 100 nM	< 100 nM
Cn1cc(Nc2ncc(Cl)c(N[C@@H]3[C@H](C(N)=O)[C@H]4C=C[C@@H]3C4)n2)cn1.Cn1cc(Nc2ncc(Cl)c(N[C@H]3[C@@H](C(N)=O)[C@@H]4C=C[C@H]3C4)n2)cn1 (mixture of isomers) [Example 27, (1S,2S,3R,4R)-3-({5-chloro-2-[(1-methyl-1H-pyrazol-4-yl)amino]pyrimidin-4-yl}amino)bicyclo[2.2.1]hept-5-ene-2-carboxamide and (1R,2R,3S,4S)-3-({5-chloro-2-[(1-methyl-1H-pyrazol-4-yl)amino]pyrimidin-4-yl}amino)bicyclo[2.2.1]hept-5-ene-2-carboxamide]	< 100 nM	< 100 nM	< 100 nM	< 100 nM
Cn1cc(Nc2ncc(Br)c(N[C@@H]3[C@H](C(N)=O)[C@H]4C=C[C@@H]3C4)n2)cn1.Cn1cc(Nc2ncc(Br)c(N[C@H]3[C@@H](C(N)=O)[C@@H]4C=C[C@H]3C4)n2)cn1 (mixture of isomers) [Example 28, (1S,2S,3R,4R)-3-({5-bromo-2-[(1-methyl-1H-pyrazol-4-yl)amino]pyrimidin-4-yl}amino)bicyclo[2.2.1]hept-5-ene-2-carboxamide and (1R,2R,3S,4S)-3-({5-bromo-2-[(1-methyl-1H-pyrazol-4-yl)amino]pyrimidin-4-yl}amino)bicyclo[2.2.1]hept-5-ene-2-carboxamide]	< 100 nM	< 100 nM	< 100 nM	< 100 nM
NC(=O)[C@@H]1[C@H](Nc2nc(Nc3cnn(CCO)c3)ncc2C(F)(F)F)[C@H]2C=C[C@@H]1C2.NC(=O)[C@H]1[C@@H](Nc2nc(Nc3cnn(CCO)c3)ncc2C(F)(F)F)[C@@H]2C=C[C@H]1C2 (mixture of isomers) [Example 29, (1S,2S,3R,4R)-3-{[2-{[1-(2-hydroxyethyl)-1H-pyrazol-4-yl]amino}-5-(trifluoromethyl)pyrimidin-4-yl]amino}bicyclo[2.2.1]hept-5-ene-2-carboxamide and (1R,2R,3S,4S)-3-{[2-{[1-(2-hydroxyethyl)-1H-pyrazol-4-yl]amino}-5-(trifluoromethyl)pyrimidin-4-yl]amino}bicyclo[2.2.1]hept-5-ene-2-carboxamide]	< 100 nM	100 to 1000 nM	< 100 nM	100 to 1000 nM
(1S,2S,3R,4R)—N-cyclopropyl-3-{[2-[(1-methyl-1H-pyrazol-4-yl)amino]-5-(trifluoromethyl)pyrimidin-4-yl]amino}bicyclo[2.2.1]hept-5-ene-2-carboxamide and (1R,2R,3S,4S)—N-cyclopropyl-3-{[2-[(1-methyl-1H-pyrazol-4-yl)amino]-5-(trifluoromethyl)pyrimidin-4-yl]amino}bicyclo[2.2.1]hept-5-ene-2-carboxamide [Example 70]	< 100 nM	–	< 100 nM	< 100 nM
isopropyl{4-[(4-{[(1R,2R,3S,4S)-3-(aminocarbonyl)bicyclo[2.2.1]hept-5-ene-2-yl]amino}-5-fluoropyrimidin-2-yl)amino]-1H-pyrazol-1-yl}acetate and isopropyl{4-[(4-{[(1S,2S,3R,4R)-3-(aminocarbonyl)bicyclo[2.2.1]hept-5-ene-2-yl]amino}-5-fluoropyrimidin-2-yl)amino]-1H-pyrazol-1-yl}acetate [Example 6]	100 to 1000 nM	–	100 to 1000 nM	100 to 1000 nM

Continued, values first:

Ki (KDR [1])	IC50 (KDR [2])	Ki (Aurora A)	Ki (Aurora B)	Compound
100 to 1000 nM	100 to 1000 nM	< 100 nM	< 100 nM	Cn1cc(Nc2ncc(C(N)=O)c(NC3C4C=CC(C4)C3C(N)=O)n2)cn1 (mixture of isomers) [Example 86, 4-{[(1S,2S,3R,4R)-3-carbamoylbicyclo[2.2.1]hept-5-ene-2-yl]amino}-2-[(1-methyl-1H-pyrazol-4-yl)amino]pyrimidine-5-carboxamide and 4-{[(1R,2R,3S,4S)-3-carbamoylbicyclo[2.2.1]hept-5-ene-2-yl]amino}-2-[(1-methyl-1H-pyrazol-4-yl)amino]pyrimidine-5-carboxamide]
< 100 nM	100 to 1000 nM	< 100 nM	< 100 nM	CCn1cc(Nc2ncc(C(N)=O)c(NC3C4C=CC(C4)C3C(N)=O)n2)cn1 (mixture of isomers) [Example 87, 4-{[(1S,2S,3R,4R)-3-carbamoylbicyclo[2.2.1]hept-5-ene-2-yl]amino}-2-[(1-ethyl-1H-pyrazol-4-yl)amino]pyrimidine-5-carboxamide and 4-{[(1R,2R,3S,4S)-3-carbamoylbicyclo[2.2.1]hept-5-ene-2-yl]amino}-2-[(1-ethyl-1H-pyrazol-4-yl)amino]pyrimidine-5-carboxamide]
100 to 1000 nM	100 to 1000 nM	100 to 1000 nM	< 100 nM	Cc1nc(Nc2cnn(C)c2)nc(N[C@@H]2[C@H](C(N)=O)[C@H]3C=C[C@@H]2C3)c1Cl.Cc1nc(Nc2cnn(C)c2)nc(N[C@H]2[C@@H](C(N)=O)[C@@H]3C=C[C@H]2C3)c1Cl (mixture of isomers) [Example 125, (1S,2S,3R,4R)-3-({5-chloro-6-methyl-2-[(1-methyl-1H-pyrazol-4-yl)amino]pyrimidin-4-yl}amino)bicyclo[2.2.1]hept-5-ene-2-carboxamide and (1R,2R,3S,4S)-3-({5-chloro-6-methyl-2-[(1-methyl-1H-pyrazol-4-yl)amino]pyrimidin-4-yl}amino)bicyclo[2.2.1]hept-5-ene-2-carboxamide]
–	100 to 1000 nM	–	–	CCn1cc(Nc2ncc(Cl)c(Nc3ccc4[nH]ncc4c3)n2)cn1 [Example 176, 5-chloro-N^2-(1-ethyl-1H-pyrazol-4-yl)-N^4-(1H-indazol-5-yl)pyrimidine-2,4-diamine]
